# Measurements: BindingDB's records for doi:10.1128/AAC.00802-08 (University of Medicine and Dentistry of New Jersey, 2008)
# Legend:
# 1,3-beta-glucan synthase [1] = target: T1, 1,3-beta-glucan synthase (Candida tropicalis, UniProt B6S6L8, S80P); experiment: Inhibition of Candida tropicalis T19 blood stream isolate glucan synthase subunit FKS1p with FLTLS/PLRDP mutant at biphasic kinetics
# 1,3-beta-glucan synthase [2] = target: T1, 1,3-beta-glucan synthase; experiment: Inhibition of Candida tropicalis T3 blood stream isolate glucan synthase subunit FKS1p with FLTLS/PLRDP mutant at biphasic kinetics
# [3] = target: T2, 1,3-beta-D-glucan synthase catalytic subunit (Candida albicans, UniProt O13383); experiment: Inhibition of Candida albicans ATCC 90028 glucan synthase at monophasic kinetics
# T2 sequence (O13383 whole entry): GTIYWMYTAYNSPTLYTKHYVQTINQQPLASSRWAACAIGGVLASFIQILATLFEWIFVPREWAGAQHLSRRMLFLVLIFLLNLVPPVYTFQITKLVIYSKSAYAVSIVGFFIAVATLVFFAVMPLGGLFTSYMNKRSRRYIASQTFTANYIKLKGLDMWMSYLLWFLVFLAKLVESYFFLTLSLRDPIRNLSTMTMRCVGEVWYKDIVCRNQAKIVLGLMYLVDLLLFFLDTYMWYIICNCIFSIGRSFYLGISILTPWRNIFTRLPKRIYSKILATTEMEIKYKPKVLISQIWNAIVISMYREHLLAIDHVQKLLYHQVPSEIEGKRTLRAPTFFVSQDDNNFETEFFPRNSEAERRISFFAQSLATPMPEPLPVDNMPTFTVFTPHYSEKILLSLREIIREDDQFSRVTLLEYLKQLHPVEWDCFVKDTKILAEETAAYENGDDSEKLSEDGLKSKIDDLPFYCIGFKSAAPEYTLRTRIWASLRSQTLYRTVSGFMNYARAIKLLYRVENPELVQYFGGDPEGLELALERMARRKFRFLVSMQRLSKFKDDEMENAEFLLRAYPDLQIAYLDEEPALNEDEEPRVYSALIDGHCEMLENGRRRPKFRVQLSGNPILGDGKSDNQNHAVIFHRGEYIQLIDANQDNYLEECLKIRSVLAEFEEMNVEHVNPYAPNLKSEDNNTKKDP
# 1,3-beta-glucan synthase [4] = target: 1,3-beta-glucan synthase (Candida tropicalis, UniProt B6S6L8, F76L); experiment: Inhibition of Candida tropicalis T26 blood stream isolate glucan synthase subunit FKS1p with LLTLSLRDP mutant at monophasic kinetics
# 1,3-beta-glucan synthase [5] = target: T1, 1,3-beta-glucan synthase; experiment: Inhibition of Candida tropicalis T3 blood stream isolate glucan synthase subunit FKS1p with FLTLS/PLRDP mutant at monophasic kinetics
# 1,3-beta-glucan synthase [6] = target: T1, 1,3-beta-glucan synthase; experiment: Inhibition of Candida tropicalis T19 blood stream isolate glucan synthase subunit FKS1p with FLTLS/PLRDP mutant at monophasic kinetics
# T1 sequence (B6S6L8 entry or part of it, stated change not applied): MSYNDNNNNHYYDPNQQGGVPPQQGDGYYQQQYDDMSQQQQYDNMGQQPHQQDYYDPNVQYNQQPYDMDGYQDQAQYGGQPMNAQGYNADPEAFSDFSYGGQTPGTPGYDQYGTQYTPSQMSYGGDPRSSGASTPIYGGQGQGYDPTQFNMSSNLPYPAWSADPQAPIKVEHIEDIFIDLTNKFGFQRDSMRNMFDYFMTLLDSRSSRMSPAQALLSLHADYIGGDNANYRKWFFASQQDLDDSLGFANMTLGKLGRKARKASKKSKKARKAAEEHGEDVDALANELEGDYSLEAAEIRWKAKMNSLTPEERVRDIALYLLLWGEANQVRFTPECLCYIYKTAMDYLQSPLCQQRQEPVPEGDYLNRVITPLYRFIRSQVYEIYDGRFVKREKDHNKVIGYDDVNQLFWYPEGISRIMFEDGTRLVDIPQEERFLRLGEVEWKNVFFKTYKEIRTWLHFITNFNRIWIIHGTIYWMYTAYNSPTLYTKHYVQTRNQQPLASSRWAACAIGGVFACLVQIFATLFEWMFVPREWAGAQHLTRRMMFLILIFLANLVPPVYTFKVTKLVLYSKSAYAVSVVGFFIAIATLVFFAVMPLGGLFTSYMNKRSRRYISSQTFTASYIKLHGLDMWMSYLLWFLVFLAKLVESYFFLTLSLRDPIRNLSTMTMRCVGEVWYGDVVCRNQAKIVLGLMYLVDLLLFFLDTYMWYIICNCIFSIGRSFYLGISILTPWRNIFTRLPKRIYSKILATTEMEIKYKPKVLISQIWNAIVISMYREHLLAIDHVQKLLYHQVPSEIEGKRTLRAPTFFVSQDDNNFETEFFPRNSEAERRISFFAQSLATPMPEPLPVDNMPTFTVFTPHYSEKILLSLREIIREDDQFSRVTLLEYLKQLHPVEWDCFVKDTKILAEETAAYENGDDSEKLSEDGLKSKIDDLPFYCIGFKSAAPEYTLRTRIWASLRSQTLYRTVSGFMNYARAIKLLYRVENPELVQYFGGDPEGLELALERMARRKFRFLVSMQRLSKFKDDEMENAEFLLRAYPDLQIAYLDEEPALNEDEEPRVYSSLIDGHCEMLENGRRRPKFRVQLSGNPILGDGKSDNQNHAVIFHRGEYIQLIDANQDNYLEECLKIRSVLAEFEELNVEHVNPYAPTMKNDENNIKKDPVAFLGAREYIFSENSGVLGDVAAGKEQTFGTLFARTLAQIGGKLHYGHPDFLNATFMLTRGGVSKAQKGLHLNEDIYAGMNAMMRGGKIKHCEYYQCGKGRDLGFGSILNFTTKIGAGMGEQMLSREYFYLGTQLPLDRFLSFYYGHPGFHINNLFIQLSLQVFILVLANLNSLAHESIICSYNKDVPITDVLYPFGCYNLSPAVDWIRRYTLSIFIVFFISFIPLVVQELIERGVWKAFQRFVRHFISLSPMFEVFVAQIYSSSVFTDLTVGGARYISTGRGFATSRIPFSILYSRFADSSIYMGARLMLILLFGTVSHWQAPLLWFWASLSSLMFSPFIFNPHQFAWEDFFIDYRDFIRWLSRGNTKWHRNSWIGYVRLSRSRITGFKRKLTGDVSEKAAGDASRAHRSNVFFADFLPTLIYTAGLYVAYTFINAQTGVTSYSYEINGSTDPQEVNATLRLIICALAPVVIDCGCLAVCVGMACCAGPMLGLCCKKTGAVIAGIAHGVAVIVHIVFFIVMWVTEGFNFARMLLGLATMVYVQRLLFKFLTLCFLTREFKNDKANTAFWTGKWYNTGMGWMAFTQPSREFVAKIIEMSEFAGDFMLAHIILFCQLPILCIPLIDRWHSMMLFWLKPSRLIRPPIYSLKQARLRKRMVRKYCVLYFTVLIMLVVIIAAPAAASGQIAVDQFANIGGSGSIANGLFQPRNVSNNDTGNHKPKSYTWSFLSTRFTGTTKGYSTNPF
# 1,3-beta-glucan synthase (Candida tropicalis, UniProt B6S6L8, F76L), sequence (B6S6L8 entry or part of it, stated change not applied): as above
smiles,measurement,setting,value
CCC(C)CC(C)CCCCCCCCC(=O)N[C@H]1C[C@@H](O)[C@@H](NCCN)NC(=O)[C@@H]2[C@@H](O)CCN2C(=O)[C@H]([C@H](O)CCN)NC(=O)[C@H]([C@H](O)[C@@H](O)c2ccc(O)cc2)NC(=O)[C@@H]2C[C@@H](O)CN2C(=O)[C@H]([C@@H](C)O)NC1=O (stereo partly specified) [CHEBI:474180],IC50,"1,3-beta-glucan synthase [1]",264 nM
same,IC50,"1,3-beta-glucan synthase [2]",370 nM
same,IC50,[3],0.5 nM
same,IC50,"1,3-beta-glucan synthase [4]",77 nM
same,IC50,"1,3-beta-glucan synthase [5]",0.306 nM
same,IC50,"1,3-beta-glucan synthase [6]",0.296 nM
